Experimental data published in patent US20220016277A1, “MACROCYCLIC COMPLEXES OF RADIONUCLIDES AND THEIR USE IN RADIOTHERAPY OF CANCER” (Cornell University, priority 2018, published 2022).

Assay: Organ distribution of ^225Ac complexes following intravenous injection in mice
Format: in vivo, C57BL/6 mice
Experimental: In Vivo Biodistribution of ^225Ac Complexes of Macropa and DOTA. All experiments were approved by the Institutional Animal Care Committee (IACC) of the University of British Columbia and were performed in accordance with the Canadian Council on Animal Care Guidelines. A total of 9 female C57BL/6 mice (6-8 weeks old, 20-25 g) were used for the biodistribution study of each radiometal complex, n=3 for each time point.
Macropa (100 μL of a 1 mg/mL solution in NH4OAc) was diluted with 387 μL of NH4OAc (1 M, pH 7), and an aliquot (203 μL) of ^225Ac(NO3)3 (˜157 kBq) was then added; the pH of this solution was adjusted to 6.5-7 by the addition of 1 M NaOH (210 μL, trace metal grade). After 5 min at ambient temperature, the reaction solution was analyzed by TLC (0.4 M pH 4 sodium citrate as the eluent), which confirmed >95% radiochemical yield. The reaction was allowed to proceed overnight, and the radiochemical yield was again confirmed to be >95% the following morning. At this time, mice were anesthetized by 2% isoflurane, and approximately 100 μL (10-15 kBq) of the [^225Ac(macropa)]^+ complex were injected into the tail vein of each mouse. After injection, mice were allowed to recover and roam freely in their cages, and were euthanized by CO2 inhalation at 15 min, 1 h, or 5 h (n=3 at each time point) post-injection. Blood was collected by cardiac puncture and placed into an appropriate test tube for scintillation counting. Tissues collected included heart, liver, kidneys, lungs, small intestine, large intestine, brain, bladder, spleen, stomach, pancreas, bone, thyroid, tail, urine, and feces. Tissues were weighed and then counted with a calibrated gamma counter (Packard, Cobra II model 5002) using three energy windows: 60-120 keV (window A), 180-260 keV (window B), and 400-480 keV (window C). Counting was performed both immediately after sacrifice and after 7 days; counts were decay corrected from the time of injection and then converted to the percentage of injected dose (% ID) per gram of tissue (% ID/g). […]
The biodistribution studies of [^225Ac(DOTA)]^− and ^225Ac(NO3)3 were carried out as described above for [^225Ac(macropa)]^+, with the following modifications. [^225Ac(DOTA)^− was prepared by adding ^225Ac(NO3)3 (338 μL, 1.1 MBq) to a solution of DOTA (100 μg, 20 mg/mL in H2O) in NH4OAc (467 μL, 0.15 M, pH 7). The pH of the solution was adjusted to 7 using NH4OAc (150 μL, 1 M, pH 7) and the solution was heated at 85° C. for 45 min. RCY >99% was confirmed by TLC as described above. [^225Ac(DOTA)]^− was diluted with saline to a final concentration of 0.05 MBq/100 μL, and 100 μL were injected into each mouse. ^225Ac(NO3)3 (˜58 μL, 0.4 MBq) was diluted and injected in the same manner as [^225Ac(DOTA)]^−. One mouse that was to be euthanized at the 5 h time point in the [^225Ac(DOTA)]^− study died shortly after injection. In the same manner, one mouse that was to be euthanized at the 1 h time point in the ^225Ac(NO3)3 study died.
The in vivo stability [^225Ac(macropa)]^+ was examined by comparing its biodistribution to those of ^225Ac(NO3)3 and [^225Ac(DOTA)]^−. C57BL/6 mice were injected via tail vein with 10-50 kBq of each radiometal complex and were sacrificed after 15 min, 1 h, or 5 h. The amount of ^225Ac retained in each organ was quantified by gamma counting and reported as the percent of injected dose per gram of tissue (% ID/g). The results of these studies are compiled in Tables 1-3. Inadequate stability of an ^225Ac complex leading to the loss of radioisotope in vivo is manifested by the accumulation of ^225Ac in the liver, spleen, and bone of mice.^[11,12,32] […] The biodistribution profile of [^225Ac(macropa)]^+ (FIG. 3B) differs markedly from that of ^225Ac(NO3)3. […] Its biodistribution profile was similar to that of [^225Ac(DOTA)]^− (FIG. 3C), which has been previously shown to retain ^225Ac^3+ in vivo.^[7]

[1] = 15 min post i.v. injection, energy window A (60-120 keV)
[2] = 15 min post i.v. injection, energy window B (180-260 keV)
[3] = 15 min post i.v. injection, energy window C (400-480 keV)
[4] = 1 h post i.v. injection, energy window A (60-120 keV)
[5] = 1 h post i.v. injection, energy window B (180-260 keV)
[6] = 1 h post i.v. injection, energy window C (400-480 keV)
[7] = 5 h post i.v. injection, energy window A (60-120 keV)
[8] = 5 h post i.v. injection, energy window B (180-260 keV)

SMILES: O=C([O-])CN1CCN(CC(=O)[O-])CCN(CC(=O)[O-])CCN(CC(=O)[O-])CC1.[225Ac+3] [[^225Ac(DOTA)]^−]
- Organ distribution: bladder [1]: 48.2703 % ID/g
- Organ distribution: blood [1]: 5.2881 % ID/g
- Organ distribution: bone (femur + joint) [1]: 2.6298 % ID/g
- Organ distribution: brain [1]: 0.2655 % ID/g
- Organ distribution: feces [1]: 6.2730 % ID/g
- Organ distribution: heart [1]: 2.3335 % ID/g
- Organ distribution: kidneys [1]: 27.6566 % ID/g
- Organ distribution: large intestines [1]: 2.3348 % ID/g
- Organ distribution: liver [1]: 2.2520 % ID/g
- Organ distribution: lungs [1]: 5.7556 % ID/g
- Organ distribution: pancreas [1]: 1.5090 % ID/g
- Organ distribution: small intestines [1]: 2.6370 % ID/g
- Organ distribution: spleen [1]: 2.5905 % ID/g
- Organ distribution: stomach [1]: 2.7440 % ID/g
- Organ distribution: tail [1]: 8.8606 % ID/g
- Organ distribution: thyroids [1]: −5.7725 % ID/g
- Organ distribution: urine [1]: 1467.9186 % ID/g
- Organ distribution: bladder [2]: 54.4696 % ID/g
- Organ distribution: blood [2]: 5.6357 % ID/g
- Organ distribution: bone (femur + joint) [2]: 3.0357 % ID/g
- Organ distribution: brain [2]: 0.2735 % ID/g
- Organ distribution: feces [2]: 1.0222 % ID/g
- Organ distribution: heart [2]: 2.7276 % ID/g
- Organ distribution: kidneys [2]: 28.0858 % ID/g
- Organ distribution: large intestines [2]: 2.5365 % ID/g
- Organ distribution: liver [2]: 2.1817 % ID/g
- Organ distribution: lungs [2]: 6.0147 % ID/g
- Organ distribution: pancreas [2]: 1.4929 % ID/g
- Organ distribution: small intestines [2]: 2.5009 % ID/g
- Organ distribution: spleen [2]: 2.9076 % ID/g
- Organ distribution: stomach [2]: 2.7311 % ID/g
- Organ distribution: tail [2]: 9.4746 % ID/g
- Organ distribution: thyroids [2]: 1.6601 % ID/g
- Organ distribution: urine [2]: 1635.4394 % ID/g
- Organ distribution: bladder [3]: 76.0987 % ID/g
- Organ distribution: blood [3]: 7.2941 % ID/g
- Organ distribution: bone (femur + joint) [3]: 4.4224 % ID/g
- Organ distribution: brain [3]: 0.1588 % ID/g
- Organ distribution: feces [3]: 1.5693 % ID/g
- Organ distribution: heart [3]: 2.5579 % ID/g
- Organ distribution: kidneys [3]: 40.4489 % ID/g
- Organ distribution: large intestines [3]: 3.8419 % ID/g
- Organ distribution: liver [3]: 2.9046 % ID/g
- Organ distribution: lungs [3]: 7.3872 % ID/g
- Organ distribution: pancreas [3]: 1.0290 % ID/g
- Organ distribution: small intestines [3]: 3.8916 % ID/g
- Organ distribution: spleen [3]: 1.5598 % ID/g
- Organ distribution: stomach [3]: 3.2425 % ID/g
- Organ distribution: tail [3]: 13.4731 % ID/g
- Organ distribution: thyroids [3]: −109.5394 % ID/g
- Organ distribution: urine [3]: 2691.0615 % ID/g
- Organ distribution: bladder [4]: 4.7351 % ID/g
- Organ distribution: blood [4]: 0.1144 % ID/g
- Organ distribution: bone (femur + joint) [4]: 0.4487 % ID/g
- Organ distribution: brain [4]: 0.0224 % ID/g
- Organ distribution: feces [4]: 0.2035 % ID/g
- Organ distribution: heart [4]: 0.1012 % ID/g
- Organ distribution: kidneys [4]: 1.4020 % ID/g
- Organ distribution: large intestines [4]: 0.1229 % ID/g
- Organ distribution: liver [4]: 0.2715 % ID/g
- Organ distribution: lungs [4]: 0.1555 % ID/g
- Organ distribution: pancreas [4]: 0.0743 % ID/g
- Organ distribution: small intestines [4]: 1.7207 % ID/g
- Organ distribution: spleen [4]: 0.0938 % ID/g
- Organ distribution: stomach [4]: 0.1367 % ID/g
- Organ distribution: tail [4]: 0.8091 % ID/g
- Organ distribution: thyroids [4]: 2.3564 % ID/g
- Organ distribution: urine [4]: 158.6102 % ID/g
- Organ distribution: bladder [5]: 4.7141 % ID/g
- Organ distribution: blood [5]: 0.1127 % ID/g
- Organ distribution: bone (femur + joint) [5]: 0.4126 % ID/g
- Organ distribution: brain [5]: 0.0248 % ID/g
- Organ distribution: feces [5]: 0.2349 % ID/g
- Organ distribution: heart [5]: 0.1378 % ID/g
- Organ distribution: kidneys [5]: 1.2560 % ID/g
- Organ distribution: large intestines [5]: 0.0813 % ID/g
- Organ distribution: liver [5]: 0.2672 % ID/g
- Organ distribution: lungs [5]: 0.1946 % ID/g
- Organ distribution: pancreas [5]: 0.0746 % ID/g
- Organ distribution: small intestines [5]: 1.8809 % ID/g
- Organ distribution: spleen [5]: 0.0825 % ID/g
- Organ distribution: stomach [5]: 0.1379 % ID/g
- Organ distribution: tail [5]: 0.8973 % ID/g
- Organ distribution: thyroids [5]: 2.6514 % ID/g
- Organ distribution: urine [5]: 159.1628 % ID/g
- Organ distribution: bladder [6]: 6.9149 % ID/g
- Organ distribution: blood [6]: 0.1102 % ID/g
- Organ distribution: bone (femur + joint) [6]: 0.5654 % ID/g
- Organ distribution: brain [6]: 0.0380 % ID/g
- Organ distribution: feces [6]: 0.4091 % ID/g
- Organ distribution: heart [6]: 0.2857 % ID/g
- Organ distribution: kidneys [6]: 1.4787 % ID/g
- Organ distribution: large intestines [6]: 0.1381 % ID/g
- Organ distribution: liver [6]: 0.2841 % ID/g
- Organ distribution: lungs [6]: 0.2551 % ID/g
- Organ distribution: pancreas [6]: 0.1730 % ID/g
- Organ distribution: small intestines [6]: 2.0201 % ID/g
- Organ distribution: spleen [6]: 0.2228 % ID/g
- Organ distribution: stomach [6]: 0.1720 % ID/g
- Organ distribution: tail [6]: 1.0280 % ID/g
- Organ distribution: thyroids [6]: 3.5247 % ID/g
- Organ distribution: urine [6]: 177.6788 % ID/g
- Organ distribution: bladder [7]: 0.3551 % ID/g
- Organ distribution: blood [7]: 0.0140 % ID/g
- Organ distribution: bone (femur + joint) [7]: 0.2063 % ID/g
- Organ distribution: brain [7]: 0.0213 % ID/g
- Organ distribution: feces [7]: 5.5318 % ID/g
- Organ distribution: heart [7]: 0.0664 % ID/g
- Organ distribution: kidneys [7]: 0.6172 % ID/g
- Organ distribution: large intestines [7]: 0.2026 % ID/g
- Organ distribution: liver [7]: 0.1010 % ID/g
- Organ distribution: lungs [7]: 0.0390 % ID/g
- Organ distribution: pancreas [7]: 0.0677 % ID/g
- Organ distribution: small intestines [7]: 0.0967 % ID/g
- Organ distribution: spleen [7]: 0.1380 % ID/g
- Organ distribution: stomach [7]: 0.0852 % ID/g
- Organ distribution: tail [7]: 0.3057 % ID/g
- Organ distribution: thyroids [7]: 3.6425 % ID/g
- Organ distribution: urine [7]: 1.1612 % ID/g
- Organ distribution: bladder [8]: 0.7521 % ID/g
- Organ distribution: blood [8]: 0.0292 % ID/g
- Organ distribution: bone (femur + joint) [8]: 0.1478 % ID/g
- Organ distribution: brain [8]: 0.0513 % ID/g
- Organ distribution: feces [8]: 3.3534 % ID/g
- Organ distribution: heart [8]: 0.0879 % ID/g
- Organ distribution: kidneys [8]: 0.6718 % ID/g
- Organ distribution: large intestines [8]: 0.2527 % ID/g
- Organ distribution: liver [8]: 0.2712 % ID/g
- Organ distribution: lungs [8]: 0.1289 % ID/g
- Organ distribution: pancreas [8]: 0.1266 % ID/g
- Organ distribution: small intestines [8]: 0.2065 % ID/g
- Organ distribution: spleen [8]: 0.0834 % ID/g
- Organ distribution: stomach [8]: 0.1789 % ID/g
- Organ distribution: tail [8]: 0.1634 % ID/g
- Organ distribution: thyroids [8]: 16.2357 % ID/g
- Organ distribution: urine [8]: 3.6967 % ID/g
